Legend:
[1] = molecular target: T1, human OX2R (Homo sapiens, UniProt O43614); assay: Evaluation of agonist activity against OX2R (intracellular calcium, Fura-2AM, FDSS7000, CHOOX2R cells); assay type: cell-based; settings: CHO cells expressing human OX2R; calcium fluorescence ratio 340/380 nm; 10^-11.5 M to 10^-5 M
T1 construct: expressed in transfected cells; host or cells: CHO (Chinese hamster ovary) cells, line CHOOX2R, also expressing NFAT-luciferase
T1 sequence (O43614 1-444): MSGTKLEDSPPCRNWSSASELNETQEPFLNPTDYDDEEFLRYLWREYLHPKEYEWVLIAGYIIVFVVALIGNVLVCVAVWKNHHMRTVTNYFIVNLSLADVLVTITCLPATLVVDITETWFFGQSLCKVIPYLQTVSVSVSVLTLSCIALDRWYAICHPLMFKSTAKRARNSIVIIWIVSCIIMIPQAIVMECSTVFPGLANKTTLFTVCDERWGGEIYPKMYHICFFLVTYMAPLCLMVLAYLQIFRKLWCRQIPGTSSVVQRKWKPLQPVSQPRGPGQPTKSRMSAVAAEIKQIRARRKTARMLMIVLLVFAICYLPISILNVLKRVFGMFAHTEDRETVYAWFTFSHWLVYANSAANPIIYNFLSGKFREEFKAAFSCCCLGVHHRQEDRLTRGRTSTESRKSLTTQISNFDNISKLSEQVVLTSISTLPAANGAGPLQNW
Method: Evaluation of Agonist Activity Against OX2R
NAFT-luciferase gene and human OX2R gene were constitutively expressed in CHO cell, which is a cell line derived from Chinese hamster ovary to establish a cell line (CHOOX2R). The cells were seeded in a 96-well Multiplate at 10,000 cells/well and cultured in a 5% FBS (Thermo Scientific)-added DMEM medium (Sigma-Aldrich) for 48 hr. The medium was removed, an assay buffer (20 mM HEPES (Sigma-Aldrich), Hanks' balanced salt solution (Gibco), 0.1% BSA (Sigma-Aldrich), 2.5 mM probenecid acid (Wako Pure Chemical Industries, Ltd.)) (100 μL) containing 4 μM Fura-2AM (Cayman Chemical) was added, and the cells were incubated for 60 min. The buffer containing Fura-2AM was removed, and an assay buffer (75 μL) was added. An assay buffer (25 μL) containing a test compound was added thereto to start the reaction. Changes in the intracellular calcium ion concentration due to the reaction were measured by measuring the fluorescence intensity ratio by dual wavelength excitation at 340 and 380 nm, by using FDSS7000 (Hamamatsu Photonics K.K.). The test compound was dissolved in DMSO to 10 mM, and diluted with the assay buffer to a final concentration of 10^−11.5 M to 10^−5 M (final concentration of DMSO 1%).

[2] = tested on: C57BL/6J lineage wild-type (WT) mice; assay: Awakening effect of oral administration (light period) to wild-type mice (EEG/EMG); assay type: in vivo, mouse; settings: ZT6 light period, 0.625 mg/kg-25 mg/kg, versus control MC, 60, 120, 180 min after administration, n=3
Source text: Awakening Effect of Oral Administration (Light Period) of Test Compound to Wild-Type Mice
As the test compound, the compound of Example 1 was used.
C57BL/6J lineage wild-type (WT) mice, and orexin receptor-deficient mice (DKO mice) (both males) as a negative control were used as experimental animals. The mice (9 to 35 weeks of age) underwent surgery for embedding electroencephalogram electrodes into the skull (Bregma: X=1.5; Y=0.6, Lambda: X=1.5; Y=0) and inserting electromyogram electrodes into the trapezius muscle under isoflurane anesthesia. Two weeks postoperation were the recovery period and acclimation period to the electroencephalogram/electromyogram measurement cage, after which administration and measurement were performed. To prepare a suspension for oral administration of the test compound, the compound was grinded in an agate mortar for 20 min and sufficiently stirred while adding a small amount of 0.5% methylcellulose aqueous solution (MC). The suspension (100 μL) was dispensed into an oral gavage needle. […]
To the WT mice were orally administered 100 μL each of the control MC or the test compound during the light period (ZT6) in the sleep period. […] DKO mice were also evaluated by a similar method, in which MC or a test compound (5 mg/kg) was orally administered, and electroencephalogram and electromyogram were measured for 3 hr after the administration. […]

[3] = tested on: orexin receptor-deficient mice (DKO mice); assay: Awakening effect of oral administration to orexin receptor-deficient mice (DKO mice), negative control (EEG/EMG); assay type: in vivo, mouse; settings: oral 5 mg/kg, versus control MC, measured 3 hr after administration, n=3
Source text: C57BL/6J lineage wild-type (WT) mice, and orexin receptor-deficient mice (DKO mice) (both males) as a negative control were used as experimental animals. The mice (9 to 35 weeks of age) underwent surgery for embedding electroencephalogram electrodes into the skull (Bregma: X=1.5; Y=0.6, Lambda: X=1.5; Y=0) and inserting electromyogram electrodes into the trapezius muscle under isoflurane anesthesia. Two weeks postoperation were the recovery period and acclimation period to the electroencephalogram/electromyogram measurement cage, after which administration and measurement were performed. To prepare a suspension for oral administration of the test compound, the compound was grinded in an agate mortar for 20 min and sufficiently stirred while adding a small amount of 0.5% methylcellulose aqueous solution (MC). The suspension (100 μL) was dispensed into an oral gavage needle. The suspensions were prepared 30 min before administration.
To the WT mice were orally administered 100 μL each of the control MC or the test compound during the light period (ZT6) in the sleep period. The test compound was administered at concentrations of 0.625 mg/kg-25 mg/kg according to the stage. DKO mice were also evaluated by a similar method, in which MC or a test compound (5 mg/kg) was orally administered, and electroencephalogram and electromyogram were measured for 3 hr after the administration. […]

Row | SMILES | EC50 [1] [nM] | awakening time (awakening prolonging effect) [2] | awakening time (awakening prolonging effect) [3]
1 | CCCCc1ccc(N2CCCN(c3cccc(NS(=O)(=O)c4cc(-c5cccc(C(=O)N(C)C)c5)ccc4OC)c3)C2=O)cc1 [Example 13, 3′-(N-(3-(3-(4-butylphenyl)-2-oxotetrahydropyrimidin-1(2H)-yl)phenyl)sulfamoyl)-4′-methoxy-N,N-dimethyl-[1,1′-biphenyl]-3-carboxamide] | 7.52 | – | –
2 | CCc1ccc(N2CCCN(c3cccc(NS(=O)(=O)c4cc(-c5cccc(C(=O)N(C)C)c5)ccc4OC)c3)C2=O)cc1 [Example 3] | 3.1 | – | –
3 | CCOc1ccc(N2CCCN(c3cccc(NS(=O)(=O)c4cc(C(C)C)ccc4OC)c3)C2=O)cc1 [Example 22] | 38.1 | – | –
4 | COc1ccc(-c2cccc(C(=O)N(C)C)c2)cc1S(=O)(=O)Nc1cccc(N2CCCN(c3ccc(Oc4ccccc4)cc3)C2=O)c1 [Example 12, 4′-methoxy-N,N-dimethyl-3′-(N-(3-(2-oxo-3-(4-phenoxyphenyl)tetrahydropyrimidin-1(2H)-yl)phenyl)sulfamoyl)-[1,1′-biphenyl]-3-carboxamide] | 217 | – | –
5 | CCCCCCCCOc1ccc(N2CCCN(c3cccc(NS(=O)(=O)c4cc(-c5cccc(C(=O)N(C)C)c5)ccc4OC)c3)C2=O)cc1 [Example 11] | > 500 | – | –
6 | CCCc1ccc(N2CCCN(c3cccc(NS(=O)(=O)c4cc(C(C)C)ccc4OC)c3)C2=O)cc1 [Example 19, 5-isopropyl-2-methoxy-N-(3-(2-oxo-3-(4-propylphenyl)tetrahydropyrimidin-1(2H)-yl)phenyl)benzenesulfonamide] | 19.6 | – | –
7 | COc1ccc(N2CCCN(c3cccc(NS(=O)(=O)c4cc(-c5cccc(C(=O)N(C)C)c5)ccc4OC)c3)C2=O)cc1 [Example 5] | 2.41 | – | –
8 | CCCc1ccc(N2CCCN(c3cccc(NS(=O)(=O)c4cc(-c5cccc(C(=O)N(C)C)c5)ccc4OC)c3)C2=O)cc1 [Example 1, 4′-methoxy-N,N-dimethyl-3′-(N-(3-(2-oxo-3-(4-propylphenyl)tetrahydropyrimidin-1(2H)-yl)phenyl)sulfamoyl)-[1,1′-biphenyl]-3-carboxamide] | 0.61 | significantly prolonged the awakening time and increased the awakening time in a dose-dependent manner | no significant difference in the awakening time
9 | CCCc1ccc(N2CCCN(c3cccc(NS(=O)(=O)c4cc(-c5cccc(C(=O)N(C)C)c5)ccc4OC(F)(F)F)c3)C2=O)cc1 [Example 17, N,N-dimethyl-3′-(N-(3-(2-oxo-3-(4-propylphenyl)tetrahydropyrimidin-1(2H)-yl)phenyl)sulfamoyl)-4′-(trifluoromethoxy)-[1,1′-biphenyl]-3-carboxamide] | 395 | – | –
10 | CCCc1ccc(N2CCCN(c3cccc(NS(=O)(=O)c4cc(C5CNC(=O)C5)ccc4OC)c3)C2=O)cc1 (stereo not shown) [Example 18, 2-methoxy-N-(3-(2-oxo-3-(4-propylphenyl)tetrahydropyrimidin-1(2H)-yl)phenyl)-5-(5-oxopyrrolidin-3-yl)benzenesulfonamide] | 6.31 | – | –
11 | COc1ccc(C(C)C)cc1S(=O)(=O)Nc1cccc(N2CCCN(c3ccc(C(C)C)cc3)C2=O)c1 [Example 20] | 41.4 | – | –
12 | CCOc1ccc(N2CCCN(c3cccc(NS(=O)(=O)c4cc(-c5cccc(C(=O)N(C)C)c5)ccc4OC)c3)C2=O)cc1 [Example 6, 3′-(N-(3-(3-(4-ethoxyphenyl)-2-oxotetrahydropyrimidin-1(2H)-yl)phenyl)sulfamoyl)-4′-methoxy-N,N-dimethyl-[1,1′-biphenyl]-3-carboxamide] | 2.87 | – | –
13 | COc1ccc(N2CCCN(c3cccc(NS(=O)(=O)c4cc(C(C)C)ccc4OC)c3)C2=O)cc1 [Example 21] | 81.7 | – | –
14 | COc1ccc(-c2cccc(C(=O)N(C)C)c2)cc1S(=O)(=O)Nc1cccc(N2CCCN(c3ccc(C(C)C)cc3)C2=O)c1 [Example 4] | 3.3 | – | –
15 | COc1ccc(-c2cccc(C(=O)N(C)C)c2)cc1S(=O)(=O)Nc1cccc(N2CCCN(c3ccc(C)cc3)C2=O)c1 [Example 2] | 5.12 | – | –
16 | COc1ccc(-c2cccc(C(=O)N(C)C)c2)cc1S(=O)(=O)Nc1cccc(N2CCCN(c3ccc(OCC(F)(F)F)cc3)C2=O)c1 [Example 9] | 20 | – | –
17 | CCCCCCCCc1ccc(N2CCCN(c3cccc(NS(=O)(=O)c4cc(-c5cccc(C(=O)N(C)C)c5)ccc4OC)c3)C2=O)cc1 [Example 15] | > 500 | – | –
18 | COc1ccc(-c2cccc(C(=O)N(C)C)c2)cc1S(=O)(=O)Nc1cccc(N2CCCN(c3ccc(OCC(C)C)cc3)C2=O)c1 [Example 10] | 65.9 | – | –
19 | [2H]C([2H])([2H])Oc1ccc(-c2cccc(C(=O)N(C)C)c2)cc1S(=O)(=O)Nc1cccc(N2CCCN(c3ccc(CCC)cc3)C2=O)c1 [Example 16, 4′-(methoxy-d3)-N,N-dimethyl-3′-(N-(3-(2-oxo-3-(4-propylphenyl)tetrahydropyrimidin-1(2H)-yl)phenyl)sulfamoyl)-[1,1′-biphenyl]-3-carboxamide] | 0.843 | – | –
20 | COc1ccc(-c2cccc(C(=O)N(C)C)c2)cc1S(=O)(=O)Nc1cccc(N2CCCN(c3ccc(-c4ccccc4)cc3)C2=O)c1 [Example 14] | 140 | – | –
